Test results reported in patent publication US9464064B2, “HCV helicase inhibitors and methods of use thereof” (University of Kansas, priority 2011, dated 2016).
Read-outs that look alike come from different tables or passages of the source.

Tests used:
scNS4A-NS3p = target: T1, scNS4A-NS3p (UniProt P26663); test: NS3 protease assay (ENZOLYTE 520), protease fragment; format: biochemical, hepatitis C virus genotype 1b; conditions: read-out: Protease ScNS4a-NS3p IC50 (μM) ± SD; one set of assays
T1 construct: fused on or other part: NS4A cofactor peptide, from the same polyprotein, fused to the NS3 protease fragment
T1 sequence (P26663 1027-1657): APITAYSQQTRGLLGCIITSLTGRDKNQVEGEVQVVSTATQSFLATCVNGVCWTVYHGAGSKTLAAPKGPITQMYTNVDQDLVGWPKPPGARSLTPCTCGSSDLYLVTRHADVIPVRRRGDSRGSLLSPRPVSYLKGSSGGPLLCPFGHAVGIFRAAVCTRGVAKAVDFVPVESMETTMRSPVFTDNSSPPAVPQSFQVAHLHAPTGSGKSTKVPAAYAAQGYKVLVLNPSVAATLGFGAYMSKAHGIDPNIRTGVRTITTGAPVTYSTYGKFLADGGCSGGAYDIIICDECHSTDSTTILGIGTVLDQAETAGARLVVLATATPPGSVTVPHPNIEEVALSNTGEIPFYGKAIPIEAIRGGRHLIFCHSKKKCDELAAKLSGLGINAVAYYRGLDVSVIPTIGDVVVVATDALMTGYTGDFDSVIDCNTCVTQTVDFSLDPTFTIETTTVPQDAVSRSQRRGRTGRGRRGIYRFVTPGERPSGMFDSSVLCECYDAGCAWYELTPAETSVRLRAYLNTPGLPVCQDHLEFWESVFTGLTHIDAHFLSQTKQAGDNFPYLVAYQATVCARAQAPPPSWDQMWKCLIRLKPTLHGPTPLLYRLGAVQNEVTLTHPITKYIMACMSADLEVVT
Method: All oligonucleotides were purchased from Integrated DNA Technologies (IDT, Coralville, Iowa). Primuline derivatives were synthesized and purified as described herein. Three different NS3 proteins were used in this study. Two were truncated C-terminally His-tagged NS3 proteins lacking the N-terminal protease, called NS3h, the third was a full-length NS3 with the portion of NS4A needed for protease activation fused to its N-terminus, called scNS4A-NS3 (Howe, et al. (1999) Protein Sci. 8:1332-41), and the fourth was a 23 kDa scNS4A-NS3 protease fragment lacking the helicase domains, called scNS4A-NS3p (Protein One, Rockville, Md.). NS3h was expressed from two different HCV strains. NS3h_1b(con1) was from the con1 strain of genotype 1b (GENBANK accession AB114136), and NS3h_2a(JFH1) was from the JFH1 strain of HCV genotype 2a (GENBANK accession AJ238799). […] His-tagged recombinant NS3h_1b(con1), NS3h_2a(JFH1), and scNS4A-NS3 (also from genotype 1b(con1)) were expressed, and purified as previously described (Frick, et al. (2010) supra; Lam, et al. (2003) J. Virol. 77:3950-3961). The scNS4A-NS3p (genotype 1b) was from Protein One. A plasmid expressing NS3h from dengue virus strain 2 (NS3h_DV2)(GENBANK accession 2BMF) is known in the art (Xu, et al. (2005) J. Virol. 79:10278-10288), and used to express and purify NS3h_DV2 (Belon, et al. (2010) supra)
All NS3 protease assays were carried out using the 5-Carboxyfluorescein-labeled substrate from the AnaSpec. ENZOLYTE 520 Protease Assay Kit (AnaSpec, San Jose, Calif.). Each assay contained 5 nM scNS4A-NS3 or 50 nM scNS4A-NS3p, […], 5% DMSO and 1× Anaspec HCV protease assay buffer. Assays were carried out in a total volume of 20 μl in black 384-well plates with fluorescence at 520 nm measured using a BMG FLUOstar Omega fluorescence spectrophotometer. Reactions were performed with eight concentrations of a two-fold dilution series of each compound (in duplicate) starting at 100 μM.

NS3h_DV2 = target: T2, NS3h_DV2 (Dengue virus type 2, UniProt P29990); test: RNA-stimulated ATP hydrolysis, pH 7.5, Dengue; format: biochemical; conditions: 10 μM poly(U) RNA, read-out: ATPase w/RNA NS3h_DV2 IC50 (μM) ± SD
T2 construct: made in house
T2 sequence (P29990 1646-2093): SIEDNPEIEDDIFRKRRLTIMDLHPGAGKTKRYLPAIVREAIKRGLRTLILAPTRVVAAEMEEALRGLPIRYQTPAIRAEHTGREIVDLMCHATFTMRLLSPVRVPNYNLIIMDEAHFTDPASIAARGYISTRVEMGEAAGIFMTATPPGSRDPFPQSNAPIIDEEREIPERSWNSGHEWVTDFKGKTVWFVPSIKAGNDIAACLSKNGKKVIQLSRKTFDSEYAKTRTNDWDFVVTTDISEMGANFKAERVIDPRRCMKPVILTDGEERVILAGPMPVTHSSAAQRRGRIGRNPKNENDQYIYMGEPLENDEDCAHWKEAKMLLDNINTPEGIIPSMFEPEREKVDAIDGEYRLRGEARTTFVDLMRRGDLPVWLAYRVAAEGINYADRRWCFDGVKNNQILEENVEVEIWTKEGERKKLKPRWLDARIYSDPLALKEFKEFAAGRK
Method: To compare the effect of compounds on HCV NS3h_1b (con1) to NS3h_DV2, reactions were performed with 2 nM of either enzyme in 25 mM Tris pH 7.5, 1.25 mM MgCl2, 1.0 mM ATP, 10% DMSO, 5 μg/ml BSA, 0.01% (v/v) TWEEN 20, 0.05 mM DTT, and 10 μM poly(U) RNA at 37° C.
To further profile compound specificity, it was determined whether the compounds would inhibit homologous NS3h expressed by the Dengue virus (NS3h_DV2). […] The same assays were also repeated with HCV NS3h_1b(con1) for comparison.

[1] = Aqueous solubility (direct UV kinetic); format: physicochemical; conditions: kinetic from dmso stock
Method: Solubility analysis was performed using a direct UV kinetic solubility method in a 96-well format. All liquid dispense and transfer steps were performed with the FREEDOM EVO automated liquid handler (Tecan, US). Solubility measurements were performed in an aqueous buffer solution (PRISMA HT, pION Inc.) at pH 5.0, 6.2 and 7.4, in duplicate. Solubility measurements were also performed in 1×PBS pH 7.4, and in MOPS buffer pH 6.5. Samples were incubated at room temperature for a minimum of […] to achieve equilibrium, then filtered to remove any precipitate formed. The concentration of the compounds was measured by UV absorbance (250-498 nm) using the […] M200 (Tecan, US) and compared to the spectra of the precipitation-free reference solutions. Spectroscopically pure 1-Propanol (Sigma) was used as a cosolvent to suppress precipitation in the reference solutions. The solubility of each compound was determined using pSOL Evolution Plus software v3.2 (pION Inc) and was expressed as the concentration (μg/mL) of a solute in a saturated solution. Diclofenac Na (highly soluble) and Dipyridamole (poorly to moderately soluble) were used as standards. Standards and test compound stocks were made in 100% DMSO. […]

[2] = aqueous with cosolvent or surfactant or cyclodextrin, mock assay matrix (MOPS, TWEEN 20, 5% DMSO) at pH 6.5, read-out: solubility

| SMILES | IC50 (scNS4A-NS3p) | IC50 (NS3h_DV2) | solubility [1, 2] | also measured |
| --- | --- | --- | --- | --- |
| Cc1ccc2nc(-c3ccc4nc(-c5ccc(NC(=O)c6ccc(C(F)(F)F)cc6)cc5)sc4c3)sc2c1S(=O)(=O)O [Compound 12, 6-methyl-2′-(4-(4-(trifluoromethyl)benzamido)phenyl)-[2,6′-bibenzo[d]thiazole]-7-sulfonic acid] | 7 µM | 2 ± 0.5 µM | – | – |
| Cc1ccc2nc(-c3ccc4nc(-c5ccc(NC(=O)c6ccc(C(C)(C)C)cc6)cc5)sc4c3)sc2c1S(=O)(=O)O [Compound 13, 2′-(4-(4-(tert-butyl)benzamido)phenyl)-6-methyl-[2,6′-bibenzo[d]thiazole]-7-sulfonic acid] | 93 µM | 8 ± 1 µM | – | – |
| Cc1ccc2nc(-c3ccc4nc(-c5ccc6nc(-c7ccc8nc(-c9ccc(N)cc9)sc8c7)sc6c5)sc4c3)sc2c1S(=O)(=O)O [Compound P4, 2′″-(4-aminophenyl)-6-methyl-[2,6′:2″,6′″-quaterbenzo[d]thiazole]-7-sulfonic acid] | 4.9 µM | 0.94 ± 0.7 µM | – | – |
| Cc1ccc2nc(-c3ccc4nc(-c5ccc(NC(=O)c6ccc(F)cc6)cc5)sc4c3)sc2c1S(=O)(=O)O.N [Compound 7, 2′-(4-(4-fluorobenzamido)phenyl)-6-methyl-[2, bibenzo[d]thiazole]-7-sulfonic acid] | > 100 µM | 6 ± 1 µM | 129 µM | – |
| Cc1ccc2nc(-c3ccc4nc(-c5ccc(N)cc5)sc4c3)sc2c1S(=O)(=O)O [Compound P2a, 2′-(4-aminophenyl)-6-methyl-[2,6′-bibenzo[d]thiazole]-7-sulfonic acid] | > 100 µM | 32 ± 17 µM | – | – |
| Cc1ccc2nc(-c3ccc4nc(-c5ccc(NC(=O)c6ccc7ccccc7c6)cc5)sc4c3)sc2c1S(=O)(=O)O [Compound 33, 2′-(4-(2-naphthamido)phenyl)-6-methyl-[2,6′-bibenzo[d]thiazole]-7-sulfonic acid] | > 100 µM | 3 ± 1 µM | 3.7 µM | – |
| Cc1ccc2nc(-c3ccc4nc(-c5ccc(NC(=O)c6ccc(Cl)c(Cl)c6)cc5)sc4c3)sc2c1S(=O)(=O)O [Compound 18, 2′-(4-(3,4-dichlorobenzamido)phenyl)-6-methyl-[2,6′-bibenzo[d]thiazole]-7-sulfonic acid] | 6.4 µM | 4 ± 1 µM | 2.6 µM | – |
| Cc1ccc2nc(-c3ccc4nc(-c5ccc(NC(=O)c6cccc(Cl)c6)cc5)sc4c3)sc2c1S(=O)(=O)O [Compound 17, 2′-(4-(3-chlorobenzamido)phenyl)-6-methyl-[2,6′-bibenzo[d]thiazole]-7-sulfonic acid] | 24 µM | 4 ± 0.6 µM | 29.2 µM | solubility ([1]; 1×PBS, pH 7.4, aqueous buffer, read-out: Aqueous Solubility, PBS): 0.12 µg/mL; solubility ([1]; PRISMA HT aqueous buffer, aqueous buffer, pH 5.0, read-out: Aqueous Solubility, Prisma HT buffer): 36.7 µg/mL; solubility ([1]; PRISMA HT aqueous buffer, pH 6.2, aqueous buffer, read-out: Aqueous Solubility, Prisma HT buffer): > 60 µg/mL; solubility ([1]; PRISMA HT aqueous buffer, pH 7.4, aqueous buffer, read-out: Aqueous Solubility, Prisma HT buffer): > 60 µg/mL; solubility ([1]; mock assay matrix with TWEEN 20, 5% DMSO, pH 6.5, aqueous with cosolvent or surfactant or cyclodextrin, read-out: Aqueous Solubility, Assay Matrix): 17.8 µg/mL |
| Cc1ccc2nc(-c3ccc4nc(-c5ccc(NC(=O)c6cccnc6)cc5)sc4c3)sc2c1S(=O)(=O)O [Compound 31, 6-methyl-2′-(4-(nicotinamido)phenyl)-[2,6′-bibenzo[d]thiazole]-7-sulfonic acid] | – | – | – | solubility ([1]; aqueous buffer, MOPS buffer (25 mM MOPS, 1.25 mM MgCl2, 2% DMSO) at pH 6.5, read-out: solubility): > 100 µM |
| Cc1ccc2nc(-c3ccc4nc(-c5ccc(NC(=O)c6cc(C(F)(F)F)ccc6F)cc5)sc4c3)sc2c1S(=O)(=O)O [Compound 25, 2′-(4-(2-fluoro-5-(trifluoromethyl)benzamido)phenyl)-6-methyl-[2,6′-bibenzo[d]thiazole]-7-sulfonic acid] | > 100 µM | 7 ± 0.1 µM | – | – |
| Cc1ccc2nc(-c3ccc4nc(-c5ccc(NC(=O)c6ccc7nc(-c8ccc(N)cc8)sc7c6)cc5)sc4c3)sc2c1S(=O)(=O)O [Compound 35, 2′-(4-(2-(4-aminophenyl)benzo[d]thiazole-6-carboxamido)phenyl)-6-methyl-[2,6′-bibenzo[d]thiazole]-7-sulfonic acid] | 20 µM | – | – | – |
| Cc1ccc2nc(-c3ccc4nc(-c5ccc(NC(=O)c6ccc(Br)cc6)cc5)sc4c3)sc2c1S(=O)(=O)O [Compound 15, 2′-(4-(4-bromobenzamido)phenyl)-6-methyl-[2,6′-bibenzo[d]thiazole]-7-sulfonic acid] | 6.5 µM | 3 ± 0.8 µM | – | – |
| Cc1ccc2nc(-c3ccc4nc(-c5ccc(NC(=O)c6cc(C(F)(F)F)cc(C(F)(F)F)c6)cc5)sc4c3)sc2c1S(=O)(=O)O [Compound 24, 2′-(4-(3,5-bis(trifluoromethyl)benzamido)phenyl)-6-methyl-[2,6′-bibenzo[d]thiazole]-7-sulfonic acid] | 7.6 µM | 11 ± 2 µM | 180 µM | – |
| Cc1ccc2nc(-c3ccc4nc(-c5ccc(NC(=O)c6ccc(N)cc6)cc5)sc4c3)sc2c1S(=O)(=O)O [Compound 6, 2′-(4-(4-aminobenzamido)phenyl)-6-methyl-[2,6′-bibenzo[d]thiazole]-7-sulfonic acid] | – | 12 ± 4 µM | – | – |
